Source: patent US5514662A, “Use of amphotericin B derivatives as protease inhibitors” (priority 1991, dated 1996)

Experiments:
cathopsin D = experiment: Activity of DABF-AmB on various proteases: cathopsin D; format: biochemical; details: 1 μM
Method: DABF-AmB was tested, at a concentration of 1 μM, on various proteases (papain, chymotrypsin, kallicrein, leucocyte elastase, cathopsin D and recombinant protease p10) under conditions and in the presence of substrates appropriate for each of the proteases tested.

CD3 = experiment: Membrane antigen CD3 in HIV-1 infected cells; format: cell-based, human; details: treated or untreated infected cells
Method: Immunofluorescence analyses are carried out on the 8th day of the infection in order to verify whether the inhibition of HIV replication by DABF-AmB results in 10 a reduced membrane expression of viral antigens.

viral antigen p24 = experiment: Secretion of p24 in HIV-1 infected PBMCs; format: cell-based; details: Human immunodeficiency virus 1, PBMC, read-out: inhibition of synthesis of p24
Method: The T cells (Jurkat and CEM) used are very permissive to HIV infection. They are cultured in RPMI 1640 medium supplemented with 10% foetal calf serum, 2 mM of glutamine and a mixture of penicillin and streptomycin. The peripheral blood mononuclear cells are obtained from blood from healthy donors, isolated on a Ficoll Hypaque gradient and stimulated with 10 μg/ml of phytohaemagglutinin A (PHA), for two days, in RPMI 1640 medium supplemented, prior to the infection by HIV, with amikacin and vancomycin (10 mg/ml), polybrene (1 mg/ml) and anti-interferon gamma serum (5 U/ml). After infection, the PBMCs are cultured (10^5 per well) in flat-bottomed 96-well plates in the same RPMI 1640 medium (200 μl per well).
The PBMCs cells (2×10^6 /ml) are infected with the same viruses and under the same conditions as the Jurkat or CEM cells. […]
The viral antigen p24 was quantified in the infected-cell supernatant by radioimmunological assay using the procedure recommended by the manufacturer (ABBOTT, Diagnostics Division).
PBMCs isolated from healthy individuals are infected with HIV-1. The production of antigen p24 as well as the reverse transcriptase activity can be detected in the supernatants of cultures infected 3 days after the infection. […]
The effect of DABF-AmB on the reverse transcriptase activity and on the secretion of p24 is evaluated on the 6th day.

PBMCs = experiment: Cytotoxicity on PBMCs; format: cell-based, human; details: concentrations up to 10^-3 M
human thymocytes = experiment: Distribution of CD4 and CD8 cells in uninfected activated thymocytes; format: cell-based
Method: Human thymuses were obtained during corrective heart surgery operations on 3 to 7 year old children. The tissues were cut into fragments and the red blood cells were removed by treating with […] buffer. After washing in PBS buffer, cellular suspensions were prepared in an RPMI 1640 medium containing 10% of human serum type […]. Dead cells were removed by passing over a sterile nylon wool column.
The cells were infected with HIV LAV/BRU as indicated above in the general procedures, and then re-inoculated in the presence of PHA, of anti-CD2 or anti-CD3 antibodies and of IL2 and cultured for 10 days at a rate of 1×10^7 cells/ml. After 10 days, viral production was evaluated by measuring the RT activity in the supernatants and the distribution of CD4/CD8 was evaluated by double fluorescence flow cytometry by means of FITC-labelled anti-CD4 antibodies (OKT4) and phycoerythrin-labelled anti-CD8 antibodies (OKT8). DABF-AmB was added to the cultures immediately after infection and maintained during the entire duration of the culture.

HeLa-Ohio cells = experiment: Cytotoxicity in HeLa-Ohio cells; format: cell-based, human; details: 20 μM for 4 weeks

C[C@@H]1[C@H](O)[C@@H](C)/C=C/C=C/C=C/C=C/C=C/C=C/C=C/[C@H](O[C@@H]2O[C@H](C)[C@@H](O)[C@H](NCC(=O)[C@@H](O)[C@@H]3OC(c4ccccc4)OC[C@H]3O)[C@@H]2O)C[C@@H]2O[C@](O)(C[C@@H](O)C[C@@H](O)[C@H](O)CC[C@@H](O)C[C@@H](O)CC(=O)O[C@H]1C)C[C@H](O)[C@H]2C(=O)O (stereo partly drawn) [DABF-AmB, 1-deoxy-1-amino-4,6-O-benzylidene-D-fructosyl-AmB]
inhibition of cathopsin D (cathopsin D): does not inhibit | level of the membrane antigen CD3 (CD3): unchanged | inhibition at 10 µM (viral antigen p24): 88 ± 6% | cytotoxic effect on PBMCs (PBMCs): without cytotoxic effect | distribution of the CD4 and CD8 cells in uninfected thymocytes (human thymocytes; even at 10 μM, PHA, anti-CD2 or anti-CD3 activated): does not significantly modify | CD4+ CD8+ population in uninfected thymocytes (human thymocytes; up to 10 μM): slight increase | cytotoxic effect (HeLa-Ohio cells): no cytotoxic effect
